Data taken from ChEMBL document CHEMBL1275492, “In vitro activity of ceftobiprole against pathogens from two phase 3 clinical trials of complicated skin and skin structure infections” (2008).
≈ marks a conversion by molar mass, not a printed value.

What was measured:
Type in all cases: functional
Citrobacter braakii = assay: Antibacterial activity against Citrobacter braakii obtained from complicated skin and skin structure infections by agar dilution method
Citrobacter freundii = assay: Antibacterial activity against Citrobacter freundii obtained from complicated skin and skin structure infections by agar dilution method
Proteus penneri = assay: Antibacterial activity against Proteus penneri obtained from complicated skin and skin structure infections by agar dilution method
Providencia stuartii = assay: Antibacterial activity against Providencia stuartii obtained from complicated skin and skin structure infections by agar dilution method
[1] = test system: Stenotrophomonas maltophilia; assay: Antibacterial activity against Stenotrophomonas maltophilia obtained from complicated skin and skin structure infections by agar dilution method
Proteus mirabilis = assay: Antibacterial activity against Proteus mirabilis obtained from complicated skin and skin structure infections by agar dilution method
Pseudomonas aeruginosa = assay: Antibacterial activity against Pseudomonas aeruginosa obtained from complicated skin and skin structure infections by agar dilution method
Escherichia coli = assay: Antibacterial activity against Escherichia coli obtained from complicated skin and skin structure infections by agar dilution method
Proteus vulgaris = assay: Antibacterial activity against Proteus vulgaris obtained from complicated skin and skin structure infections by agar dilution method
Acinetobacter baumannii = assay: Antibacterial activity against Acinetobacter baumannii obtained from complicated skin and skin structure infections by agar dilution method
Morganella morganii = assay: Antibacterial activity against Morganella morganii obtained from complicated skin and skin structure infections by agar dilution method
Enterobacter amnigenus = assay: Antibacterial activity against Enterobacter amnigenus obtained from complicated skin and skin structure infections by agar dilution method; conditions: Lelliottia amnigena
Serratia marcescens = assay: Antibacterial activity against Serratia marcescens obtained from complicated skin and skin structure infections by agar dilution method
Pseudomonas fluorescens = assay: Antibacterial activity against Pseudomonas fluorescens obtained from complicated skin and skin structure infections by agar dilution method
Salmonella = assay: Antibacterial activity against Salmonella spp. obtained from complicated skin and skin structure infections by agar dilution method
Klebsiella aerogenes = assay: Antibacterial activity against Enterobacter aerogenes obtained from complicated skin and skin structure infections by agar dilution method
Klebsiella oxytoca = assay: Antibacterial activity against Klebsiella oxytoca obtained from complicated skin and skin structure infections by agar dilution method
Enterobacter cloacae = assay: Antibacterial activity against Enterobacter cloacae obtained from complicated skin and skin structure infections by agar dilution method
Klebsiella pneumoniae = assay: Antibacterial activity against Klebsiella pneumoniae obtained from complicated skin and skin structure infections by agar dilution method
[2] = test system: Staphylococcus haemolyticus; assay: Antibacterial activity against coagulase-negative Staphylococcus haemolyticus obtained from complicated skin and skin structure infections by agar dilution method
Staphylococcus capitis = assay: Antibacterial activity against coagulase-negative Staphylococcus capitis obtained from complicated skin and skin structure infections by agar dilution method
[3] = test system: Staphylococcus epidermidis; assay: Antibacterial activity against coagulase-negative Staphylococcus epidermidis obtained from complicated skin and skin structure infections by agar dilution method
[4] = test system: Streptococcus constellatus; assay: Antibacterial activity against Streptococcus constellatus obtained from complicated skin and skin structure infections by agar dilution method
Staphylococcus cohnii = assay: Antibacterial activity against coagulase-negative Staphylococcus cohnii obtained from complicated skin and skin structure infections by agar dilution method
Gemella morbillorum = assay: Antibacterial activity against Gemella morbillorum obtained from complicated skin and skin structure infections […]
Streptococcus mitis = assay: Antibacterial activity against Streptococcus mitis obtained from complicated skin and skin structure infections by agar dilution method
Staphylococcus warneri = assay: Antibacterial activity against coagulase-negative Staphylococcus warneri obtained from complicated skin and skin structure infections by agar dilution method
Gemella = assay: Antibacterial activity against Gemella spp. obtained from complicated skin and skin structure infections by agar dilution method
Bacillus = assay: Antibacterial activity against Bacillus spp. obtained from complicated skin and skin structure infections by agar dilution method
[5] = test system: Staphylococcus saprophyticus; assay: Antibacterial activity against coagulase-negative Staphylococcus saprophyticus obtained from complicated skin and skin structure infections by agar dilution method
Mammaliicoccus sciuri = assay: Antibacterial activity against coagulase-negative Staphylococcus sciuri obtained from complicated skin and skin structure infections by agar dilution method
[6] = test system: Staphylococcus lugdunensis; assay: Antibacterial activity against coagulase-negative Staphylococcus lugdunensis obtained from complicated skin and skin structure infections by agar dilution method
Lactococcus lactis = assay: Antibacterial activity against Lactococcus lactis obtained from complicated skin and skin structure infections by agar dilution method
[7] = test system: Staphylococcus intermedius; assay: Antibacterial activity against Staphylococcus intermedius obtained from complicated skin and skin structure infections by agar dilution method
Staphylococcus aureus [8] = assay: Antibacterial activity against methicillin susceptible Staphylococcus aureus obtained from complicated skin and skin structure infections by agar dilution method
[9] = test system: Staphylococcus lugdunensis; assay: Antibacterial activity against methicillin-resistant, oxacillin-susceptible, coagulase-negative, mecA-positive Staphylococcus lugdunensis obtained from complicated skin and skin structure infections by agar dilution method
Staphylococcus = assay: Antibacterial activity against methicillin-susceptible, coagulase-negative Staphylococcus obtained from complicated skin and skin structure infections by agar dilution method
Aerococcus viridans = assay: Antibacterial activity against Aerococcus viridans obtained from complicated skin and skin structure infections by agar dilution method
Staphylococcus aureus [10] = assay: Antibacterial activity against Staphylococcus aureus obtained from complicated skin and skin structure infections by agar dilution method
Micrococcus = assay: Antibacterial activity against Micrococcus spp. obtained from complicated skin and skin structure infections by agar dilution method
Staphylococcus hominis = assay: Antibacterial activity against coagulase-negative Staphylococcus hominis obtained from complicated skin and skin structure infections by agar dilution method
Staphylococcus aureus [11] = assay: Antibacterial activity against methicillin resistant Staphylococcus aureus obtained from complicated skin and skin structure infections by agar dilution method

`O=C(O)c1cn(C2CC2)c2cc(N3CCNCC3)c(F)cc2c1=O` [CIPROFLOXACIN] was tested, and the MIC50 (Citrobacter braakii) was 0.015 µg/mL (≈ 0.0453 µM), the MIC90 (Citrobacter braakii) was > 2 µg/mL and the MIC50 (Citrobacter freundii) was 0.015 µg/mL (≈ 0.0453 µM). For the same molecule, the MIC90 (Citrobacter freundii) was > 2 µg/mL, the MIC50 (Proteus penneri) was 0.015 µg/mL (≈ 0.0453 µM) and the MIC90 (Proteus penneri) was > 2 µg/mL. For the same molecule, the MIC50 (Providencia stuartii) was 0.015 µg/mL (≈ 0.0453 µM), the MIC90 (Providencia stuartii) was > 2 µg/mL and the MIC50 [1] was > 2 µg/mL. For the same molecule, the MIC90 [1] was > 8 µg/mL, the MIC50 (Proteus mirabilis) was 0.03 µg/mL (≈ 0.0905 µM) and the MIC90 (Proteus mirabilis) was > 2 µg/mL. The MIC50 (Pseudomonas aeruginosa) was 1 µg/mL (≈ 3.02 µM), the MIC90 (Pseudomonas aeruginosa) was > 8 µg/mL and the MIC50 (Escherichia coli) was 0.015 µg/mL (≈ 0.0453 µM). For the same molecule, the MIC90 (Escherichia coli) was 1 µg/mL (≈ 3.02 µM), the MIC50 (Proteus vulgaris) was 0.015 µg/mL (≈ 0.0453 µM) and the MIC90 (Proteus vulgaris) was > 2 µg/mL. For the same molecule, the MIC50 (Acinetobacter baumannii) was > 2 µg/mL, the MIC90 (Acinetobacter baumannii) was > 8 µg/mL and the MIC50 (Morganella morganii) was 0.12 µg/mL (≈ 0.362 µM). The MIC90 (Morganella morganii) was > 8 µg/mL, the MIC50 (Enterobacter amnigenus) was 0.015 µg/mL (≈ 0.0453 µM) and the MIC90 (Enterobacter amnigenus) was > 2 µg/mL. The MIC50 (Serratia marcescens) was 0.015 µg/mL (≈ 0.0453 µM), the MIC90 (Serratia marcescens) was > 2 µg/mL and the MIC50 (Pseudomonas fluorescens) was > 2 µg/mL. For the same molecule, the MIC90 (Pseudomonas fluorescens) was > 8 µg/mL, the MIC50 (Salmonella) was 0.015 µg/mL (≈ 0.0453 µM) and the MIC90 (Salmonella) was > 2 µg/mL. For the same molecule, the MIC50 (Klebsiella aerogenes) was 0.015 µg/mL (≈ 0.0453 µM), the MIC90 (Klebsiella aerogenes) was > 2 µg/mL and the MIC50 (Klebsiella oxytoca) was 0.015 µg/mL (≈ 0.0453 µM). For the same molecule, the MIC90 (Klebsiella oxytoca) was > 2 µg/mL.
`C[C@@H](O)[C@H]1C(=O)N2C(C(=O)O)=C(S[C@@H]3CN[C@H](C(=O)N(C)C)C3)[C@H](C)[C@H]12` [MEROPENEM] was tested, and the MIC50 (Citrobacter braakii) was 0.03 µg/mL (≈ 0.0782 µM), the MIC90 (Citrobacter braakii) was ≤ 0.12 µg/mL and the MIC50 (Citrobacter freundii) was 0.03 µg/mL (≈ 0.0782 µM). The MIC90 (Citrobacter freundii) was ≤ 0.12 µg/mL, the MIC50 (Proteus penneri) was 0.03 µg/mL (≈ 0.0782 µM) and the MIC90 (Proteus penneri) was ≤ 0.12 µg/mL. The MIC50 (Providencia stuartii) was 0.03 µg/mL (≈ 0.0782 µM), the MIC90 (Providencia stuartii) was ≤ 0.12 µg/mL and the MIC50 (Enterobacter cloacae) was 0.03 µg/mL (≈ 0.0782 µM). The MIC90 (Enterobacter cloacae) was ≤ 0.12 µg/mL, the MIC50 [1] was 2 µg/mL (≈ 5.22 µM) and the MIC90 [1] was > 32 µg/mL. The MIC50 (Proteus mirabilis) was 0.06 µg/mL (≈ 0.156 µM), the MIC90 (Proteus mirabilis) was ≤ 0.12 µg/mL and the MIC50 (Pseudomonas aeruginosa) was 4 µg/mL (≈ 10.4 µM). The MIC90 (Pseudomonas aeruginosa) was 8 µg/mL (≈ 20.9 µM), the MIC (Escherichia coli) was 0.015 µg/mL (≈ 0.0391 µM) and the MIC50 (Escherichia coli) was 0.015 µg/mL (≈ 0.0391 µM). For the same molecule, the MIC90 (Escherichia coli) was ≤ 0.12 µg/mL, the MIC50 (Klebsiella pneumoniae) was 0.03 µg/mL (≈ 0.0782 µM) and the MIC90 (Klebsiella pneumoniae) was ≤ 0.12 µg/mL. For the same molecule, the MIC50 (Proteus vulgaris) was 0.03 µg/mL (≈ 0.0782 µM), the MIC90 (Proteus vulgaris) was ≤ 0.12 µg/mL and the MIC50 (Acinetobacter baumannii) was 2 µg/mL (≈ 5.22 µM). For the same molecule, the MIC90 (Acinetobacter baumannii) was > 32 µg/mL, the MIC50 (Morganella morganii) was ≤ 0.12 µg/mL and the MIC90 (Morganella morganii) was 0.12 µg/mL (≈ 0.313 µM). The MIC50 (Enterobacter amnigenus) was 0.03 µg/mL (≈ 0.0782 µM), the MIC90 (Enterobacter amnigenus) was ≤ 0.12 µg/mL and the MIC50 (Serratia marcescens) was 0.03 µg/mL (≈ 0.0782 µM). For the same molecule, the MIC90 (Serratia marcescens) was ≤ 0.12 µg/mL, the MIC50 (Pseudomonas fluorescens) was 2 µg/mL (≈ 5.22 µM) and the MIC90 (Pseudomonas fluorescens) was > 32 µg/mL. The MIC50 (Salmonella) was 0.03 µg/mL (≈ 0.0782 µM), the MIC90 (Salmonella) was ≤ 0.12 µg/mL and the MIC50 (Klebsiella aerogenes) was 0.03 µg/mL (≈ 0.0782 µM). The MIC90 (Klebsiella aerogenes) was ≤ 0.12 µg/mL, the MIC50 (Klebsiella oxytoca) was 0.03 µg/mL (≈ 0.0782 µM) and the MIC90 (Klebsiella oxytoca) was ≤ 0.12 µg/mL.
With `Cc1onc(-c2ccccc2)c1C(=O)N[C@@H]1C(=O)N2[C@@H]1SC(C)(C)[C@@H]2C(=O)O` [OXACILLIN] the MIC50 [2] was 0.5 µg/mL (≈ 1.25 µM), the MIC90 [2] was > 8 µg/mL and the MIC50 (Staphylococcus capitis) was 0.5 µg/mL (≈ 1.25 µM). For the same molecule, the MIC90 (Staphylococcus capitis) was > 8 µg/mL, the MIC50 [3] was 0.5 µg/mL (≈ 1.25 µM) and the MIC90 [3] was > 8 µg/mL. The MIC50 [4] was 0.12 µg/mL (≈ 0.299 µM), the MIC90 [4] was 0.25 µg/mL (≈ 0.623 µM) and the MIC50 (Staphylococcus cohnii) was 0.5 µg/mL (≈ 1.25 µM). The MIC90 (Staphylococcus cohnii) was > 8 µg/mL, the MIC50 (Gemella morbillorum) was 0.25 µg/mL (≈ 0.623 µM) and the MIC90 (Gemella morbillorum) was > 8 µg/mL. For the same molecule, the MIC (Streptococcus mitis) was 0.25 µg/mL (≈ 0.623 µM), the MIC50 (Streptococcus mitis) was 0.25 µg/mL (≈ 0.623 µM) and the MIC90 (Streptococcus mitis) was 1 µg/mL (≈ 2.49 µM). The MIC50 (Staphylococcus warneri) was 0.5 µg/mL (≈ 1.25 µM), the MIC90 (Staphylococcus warneri) was > 8 µg/mL and the MIC50 (Gemella) was 0.25 µg/mL (≈ 0.623 µM). For the same molecule, the MIC90 (Gemella) was > 8 µg/mL, the MIC50 (Bacillus) was 0.25 µg/mL (≈ 0.623 µM) and the MIC90 (Bacillus) was > 8 µg/mL. For the same molecule, the MIC50 [5] was 0.5 µg/mL (≈ 1.25 µM), the MIC90 [5] was > 8 µg/mL and the MIC50 (Mammaliicoccus sciuri) was 0.5 µg/mL (≈ 1.25 µM). The MIC90 (Mammaliicoccus sciuri) was > 8 µg/mL, the MIC50 [6] was 0.5 µg/mL (≈ 1.25 µM) and the MIC90 [6] was > 8 µg/mL. For the same molecule, the MIC50 (Lactococcus lactis) was 0.25 µg/mL (≈ 0.623 µM), the MIC90 (Lactococcus lactis) was > 8 µg/mL and the MIC [7] was 0.25 µg/mL (≈ 0.623 µM). For the same molecule, the MIC50 [7] was 0.25 µg/mL (≈ 0.623 µM), the MIC90 [7] was 1 µg/mL (≈ 2.49 µM) and the MIC50 (Staphylococcus aureus [8]) was 0.25 µg/mL (≈ 0.623 µM). It also gave an MIC90 (Staphylococcus aureus [8]) of 0.5 µg/mL (≈ 1.25 µM), an MIC50 [9] of 4 µg/mL (≈ 9.96 µM) and an MIC90 [9] of 32 µg/mL (≈ 79.7 µM). It also gave an MIC50 (Staphylococcus) of 0.12 µg/mL (≈ 0.299 µM), an MIC90 (Staphylococcus) of 0.25 µg/mL (≈ 0.623 µM) and an MIC50 (Aerococcus viridans) of 0.25 µg/mL (≈ 0.623 µM). For the same molecule, the MIC90 (Aerococcus viridans) was > 8 µg/mL, the MIC50 (Staphylococcus aureus [10]) was 0.5 µg/mL (≈ 1.25 µM) and the MIC90 (Staphylococcus aureus [10]) was 32 µg/mL (≈ 79.7 µM). For the same molecule, the MIC50 (Micrococcus) was 0.25 µg/mL (≈ 0.623 µM), the MIC90 (Micrococcus) was > 8 µg/mL and the MIC50 (Staphylococcus hominis) was 0.5 µg/mL (≈ 1.25 µM). For the same molecule, the MIC90 (Staphylococcus hominis) was > 8 µg/mL, the MIC50 (Staphylococcus aureus [11]) was 16 µg/mL (≈ 39.9 µM) and the MIC90 (Staphylococcus aureus [11]) was > 32 µg/mL.
With GENTAMICIN the MIC50 (Pseudomonas aeruginosa) was 4 µg/mL and the MIC90 (Pseudomonas aeruginosa) was > 16 µg/mL.
